In patent US20070010671A1, “Novel quinazoline derivatives and methods of treatment related to the use thereof” (priority 2003, published 2007):
pIC50: −log10 of the molar value.

Each compound was assayed against MCH receptor (Homo sapiens, UniProt Q99705) (assay: High throughput functional screening FLIPR/FDSS6000: inhibition of MCH-evoked intracellular Ca2+ changes). Details: class by percent of control at 10^-7 M or by IC50; read-out: class.
Assay type: cell-based
Procedure, shortened: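 Cells expressing constitutively active MCH receptor, loaded with 4 μM Fluo4-AM for 1 h at 37 °C, were pretreated 3 min with compound, then challenged with MCH (50 nM for antagonist testing). MCH-evoked [Ca2+]i transients followed by FLIPR or FDSS (ex 488/em 530 nm) over 290 s.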

CC(=O)c1cccc(NC(=O)N[C@H]2CC[C@@H](Nc3nc(N(C)C)c4ccccc4n3)CC2)c1 [compound 4] was tested. Which pIC50 did it give?
The pIC50 was < 6.70.

CC(=O)c1ccc(NC(=O)N[C@H]2CC[C@@H](Nc3nc(N(C)C)c4ccccc4n3)CC2)cc1 [compound 6] was tested. Which pIC50 did it give?
The pIC50 was < 6.70.

With CN(C)c1nc(N[C@H]2CC[C@@H](NC(=O)NC(=O)c3ccccc3)CC2)nc2ccccc12 [compound 7] as the compound, how does the pIC50 read?
The pIC50 was < 6.70.

How did the pIC50 turn out when CN(C)c1nc(N[C@H]2CC[C@@H](NC(=O)Nc3cc(C(F)(F)F)cc(C(F)(F)F)c3)CC2)nc2ccccc12 [compound 8] was run?
The pIC50 was < 6.70.

CN(C)c1nc(N[C@H]2CC[C@@H](NC(=O)NCc3ccccc3)CC2)nc2ccccc12 [compound 9, N-benzyl-N′-(cis-4-{[4-(dimethylamino)quinazolin-2-yl]amino}cyclohexyl)urea] was tested. Which pIC50 did it give?
Its pIC50 is 6.70 to 7.30.

How did the pIC50 turn out when CN(C)c1nc(N[C@H]2CC[C@@H](NC(=O)Nc3ccccc3Br)CC2)nc2ccccc12 [compound 10, N-(2-bromophenyl)-N′-(cis-4-{[4-(dimethylamino)quinazolin-2-yl]amino}cyclohexyl)urea] was run?
Its pIC50 is > 7.30.

With CN(C)c1nc(N[C@H]2CC[C@@H](NC(=O)Nc3ccccc3-c3ccccc3)CC2)nc2ccccc12 [compound 11, N-biphenyl-2-yl-N′-(cis-4-{[4-(dimethylamino)quinazolin-2-yl]amino}cyclohexyl)urea] as the compound, how does the pIC50 read?
Its pIC50 is > 7.30.

With CN(C)c1nc(N[C@H]2CC[C@@H](NC(=O)Nc3ccc(Br)cc3)CC2)nc2ccccc12 [compound 12, N-(4-bromophenyl)-N′-(cis-4-{[4-(dimethylamino)quinazolin-2-yl]amino}cyclohexyl)urea] as the compound, how does the pIC50 read?
Its pIC50 is 6.70 to 7.30.

With CCCCNC(=O)N[C@H]1CC[C@@H](Nc2nc(N(C)C)c3ccccc3n2)CC1 [compound 13, N-butyl-N′-(cis-4-{[4-(dimethylamino)quinazolin-2-yl]amino}cyclohexyl)urea] as the compound, how does the pIC50 read?
Its pIC50 is > 7.30.

CN(C)c1nc(N[C@H]2CC[C@@H](NC(=O)Nc3cccc(Cl)c3)CC2)nc2ccccc12 [compound 14] was tested. Which pIC50 did it give?
Its pIC50 is < 6.70.

With CN(C)c1nc(N[C@H]2CC[C@@H](NC(=O)Nc3ccc(Cl)cc3)CC2)nc2ccccc12 [compound 15] as the compound, how does the pIC50 read?
Its pIC50 is < 6.70.

CN(C)c1nc(N[C@H]2CC[C@@H](NC(=O)NC3CCCCC3)CC2)nc2ccccc12 [compound 16, N-cyclohexyl-N′-(cis-4-{[4-(dimethylamino)quinazolin-2-yl]amino}cyclohexyl)urea] was tested. Which pIC50 did it give?
Its pIC50 is 6.70 to 7.30.

How did the pIC50 turn out when CN(C)c1nc(N[C@H]2CC[C@@H](NC(=O)Nc3cccc(C#N)c3)CC2)nc2ccccc12 [compound 17] was run?
The pIC50 was < 6.70.

CN(C)c1nc(N[C@H]2CC[C@@H](NC(=O)Nc3ccccc3Cl)CC2)nc2ccccc12 [compound 18, N-(2-chlorophenyl)-N′-(cis-4-{[4-(dimethylamino)quinazolin-2-yl]amino}cyclohexyl)urea] was tested. Which pIC50 did it give?
The pIC50 was > 7.30.

Cc1cccc(C)c1NC(=O)N[C@H]1CC[C@@H](Nc2nc(N(C)C)c3ccccc3n2)CC1 [compound 19, N-(cis-4-{[4-(dimethylamino)quinazolin-2-yl]amino}cyclohexyl)-N′-(2,6-dimethylphenyl)urea] was tested. Which pIC50 did it give?
Its pIC50 is > 7.30.

How did the pIC50 turn out when CN(C)c1nc(N[C@H]2CC[C@@H](NC(=O)Nc3ccc(Cl)c(Cl)c3)CC2)nc2ccccc12 [compound 20] was run?
The pIC50 was < 6.70.

How did the pIC50 turn out when CN(C)c1nc(N[C@H]2CC[C@@H](NC(=O)Nc3ccc(F)cc3F)CC2)nc2ccccc12 [compound 21, N-(2,4-difluorophenyl)-N′-(cis-4-{[4-(dimethylamino)quinazolin-2-yl]amino}cyclohexyl)urea] was run?
Its pIC50 is > 7.30.

With CN(C)c1nc(N[C@H]2CC[C@@H](NC(=O)Nc3ccc(Cl)cc3Cl)CC2)nc2ccccc12 [compound 22, N-(2,4-dichlorophenyl)-N′-(cis-4-{[4-(dimethylamino)quinazolin-2-yl]amino}cyclohexyl)urea] as the compound, how does the pIC50 read?
Its pIC50 is 6.70 to 7.30.

CN(C)c1nc(N[C@H]2CC[C@@H](NC(=O)Nc3cc(Cl)cc(Cl)c3)CC2)nc2ccccc12 [compound 23] was tested. Which pIC50 did it give?
Its pIC50 is < 6.70.

CN(C)c1nc(N[C@H]2CC[C@@H](NC(=O)Nc3cccc(Cl)c3Cl)CC2)nc2ccccc12 [compound 24] was tested. Which pIC50 did it give?
Its pIC50 is < 6.70.

With CN(C)c1nc(N[C@H]2CC[C@@H](NC(=O)Nc3c(F)cccc3F)CC2)nc2ccccc12 [compound 25] as the compound, how does the pIC50 read?
The pIC50 was < 6.70.

How did the pIC50 turn out when CN(C)c1nc(N[C@H]2CC[C@@H](NC(=O)Nc3cc(Cl)ccc3Cl)CC2)nc2ccccc12 [compound 26] was run?
The pIC50 was < 6.70.

With Cc1cccc(NC(=O)N[C@H]2CC[C@@H](Nc3nc(N(C)C)c4ccccc4n3)CC2)c1C [compound 27, N-(cis-4-{[4-(dimethylamino)quinazolin-2-yl]amino}cyclohexyl)-N′-(2,3-dimethylphenyl)urea] as the compound, how does the pIC50 read?
The pIC50 was > 7.30.

How did the pIC50 turn out when CCOC(=O)CNC(=O)N[C@H]1CC[C@@H](Nc2nc(N(C)C)c3ccccc3n2)CC1 [compound 28] was run?
The pIC50 was < 6.70.

How did the pIC50 turn out when CCOC(=O)c1cccc(NC(=O)N[C@H]2CC[C@@H](Nc3nc(N(C)C)c4ccccc4n3)CC2)c1 [compound 29, ethyl 3-({[(cis-4-{[4-(dimethylamino)quinazolin-2-yl]amino}cyclohexyl)amino]carbonyl}amino)benzoate] was run?
The pIC50 was > 7.30.

How did the pIC50 turn out when CCOC(=O)c1ccc(NC(=O)N[C@H]2CC[C@@H](Nc3nc(N(C)C)c4ccccc4n3)CC2)cc1 [compound 30, ethyl 4-({[(cis-4-{[4-(dimethylamino)quinazolin-2-yl]amino}cyclohexyl)amino]carbonyl}amino)benzoate] was run?
The pIC50 was 6.70 to 7.30.

Same assay, conditions: class by percent of control at 10^−7 M or by IC50; read-out: class

With CN(C)c1nc(N[C@H]2CC[C@@H](NC(=O)c3ccccc3)CC2)nc2cc(F)c(F)cc12 [Example 1205, N-(cis-4-{[4-(dimethylamino)-6,7-difluoroquinazolin-2-yl]amino}cyclohexyl)benzamide] as the compound, how does the pIC50 read?
The pIC50 was > 7.30.

Cc1ccc(C(=O)N[C@H]2CC[C@@H](Nc3nc(N(C)C)c4cc(F)c(F)cc4n3)CC2)cc1 [Example 1206, N-(cis-4-{[4-(dimethylamino)-6,7-difluoroquinazolin-2-yl]amino}cyclohexyl)-4-methylbenzamide] was tested. Which pIC50 did it give?
The pIC50 was > 7.30.

CN(C)c1nc(N[C@H]2CC[C@@H](NC(=O)c3ccc(F)cc3)CC2)nc2cc(F)c(F)cc12 [Example 1207, N-(cis-4-{[4-(dimethylamino)-6,7-difluoroquinazolin-2-yl]amino}cyclohexyl)-4-fluorobenzamide] was tested. Which pIC50 did it give?
The pIC50 was > 7.30.

COc1cccc(C(=O)N[C@H]2CC[C@@H](Nc3nc(N(C)C)c4cc(F)c(F)cc4n3)CC2)c1 [Example 1208, N-(cis-4-{[4-(dimethylamino)-6,7-difluoroquinazolin-2-yl]amino}cyclohexyl)-3-methoxybenzamide] was tested. Which pIC50 did it give?
Its pIC50 is > 7.30.

With CN(C)c1nc(N[C@H]2CC[C@@H](NC(=O)c3ccc(F)c(F)c3)CC2)nc2cc(F)c(F)cc12 [Example 1209, N-(cis-4-{[4-(dimethylamino)-6,7-difluoroquinazolin-2-yl]amino}cyclohexyl)-3,4-difluorobenzamide] as the compound, how does the pIC50 read?
The pIC50 was > 7.30.

CN(C)c1nc(N[C@H]2CC[C@@H](NC(=O)c3cccc(C(F)(F)F)c3)CC2)nc2cc(F)c(F)cc12 [Example 1210, N-(cis-4-{[4-(dimethylamino)-6,7-difluoroquinazolin-2-yl]amino}cyclohexyl)-3-(trifluoromethyl)benzamide] was tested. Which pIC50 did it give?
Its pIC50 is > 7.30.

With CN(C)c1nc(N[C@H]2CC[C@@H](NC(=O)c3ccc(OC(F)(F)F)cc3)CC2)nc2cc(F)c(F)cc12 [Example 1211, N-(cis-4-{[4-(dimethylamino)-6,7-difluoroquinazolin-2-yl]amino}cyclohexyl)-4-(trifluoromethoxy)benzamide] as the compound, how does the pIC50 read?
The pIC50 was < 6.70.
